# Assays:
# Format in all cases: cell-based
# NCI-H23 = test: Anti-proliferation assay (CellTiter-Glo 2.0), combination index, NCI-H23
# Method: (§1) Cell lines were obtained from ATCC or Health Science Research Resources Bank.
# Each cell lines were collected by ordinary method, then suspended in indicated medium containing 10% fetal bovine serum in table 3. The number of cells seeded per well was set to 500 cells/20 μL. […] The concentration of each anti-cancer reagents set to 8 concentrations including 0 nM. After adding the medicine to the cells, the cells were further incubated at 37° C. for 3 days under 5% CO2. Cell survival rates were calculated by adding 20 μL of CellTiter-Glo(registered trademark) 2. 0 (Promega) solution to each well, incubating the cells at room temperature for 10 minutes, and then measuring the chemiluminescence intensity of each well using a plate reader (ARVO).
# (§2) A combination index (CI) value at each combined concentration of the medicines was determined.
# MV-4-11 = test: Anti-proliferation assay (CellTiter-Glo 2.0), combination index, MV-4-11
# Method: as §1
# 384 well culture plate (781086, Greiner Bio-One International) was used for cell survival rate measurement assay. Each cell lines were collected by ordinary method, then suspended in indicated medium containing 10% fetal bovine serum in table 3. The number of cells seeded per well was set to 500 cells/20 μL. After incubation at 37° C. for 24 hours under 5% CO2, Compound 1 and additional compound having an antitumor effect or a vehicle (DMSO) was added to each well by using D300e Digital Dispenser (Tecan). The concentration of Compound 1 was set to 10 concentrations. The concentration of each anti-cancer reagents set to 8 concentrations including 0 nM. After adding the medicine to the cells, the cells were further incubated at 37° C. for 3 days under 5% CO2. Cell survival rates were calculated by adding 20 μL of CellTiter-Glo(registered trademark) 2. 0 (Promega) solution to each well, incubating the cells at room temperature for 10 minutes, and then measuring the chemiluminescence intensity of each well using a plate reader (ARVO).
# as §2
# RT4 = test: Anti-proliferation assay (CellTiter-Glo 2.0), combination index, RT4
# How it was run: (§3)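 Cells were seeded at 500 cells/well in medium with 10% FBS and exposed to agents at 8 concentrations including 0 nM, for 3 days at 37° C under 5% CO2. Survival was read by CellTiter-Glo 2.0 luminescence, and combination index was determined at each combined concentration.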
# NCI-H358 = test: Anti-proliferation assay (CellTiter-Glo 2.0), combination index, NCI-H358
# How it was run: as §3
# [1] = Compound 1 123 + combination drug 370 nmol/L (1:3)
# [2] = Compound 1 370 + combination drug 1110 nmol/L (1:3)
# [3] = Compound 1 1110 + combination drug 3330 nmol/L (1:3)
# [4] = Compound 1 3330 + combination drug 10000 nmol/L (1:3)
# [5] = Compound 1 123 + combination drug 10000 nmol/L (1:81)
# [6] = Compound 1 41.2 + combination drug 41.2 nmol/L (1:1)
# [7] = Compound 1 123 + combination drug 123 nmol/L (1:1)
# [8] = Compound 1 370 + combination drug 370 nmol/L (1:1)
# [9] = Compound 1 1110 + combination drug 1110 nmol/L (1:1)
# [10] = Compound 1 3330 + combination drug 3330 nmol/L (1:1)
# [11] = Compound 1 123 + combination drug 333 nmol/L (1:2.7)
# [12] = Compound 1 370 + combination drug 1000 nmol/L (1:2.7)
# [13] = Compound 1 4.57 + combination drug 1.37 nmol/L (1:0.3)
# [14] = Compound 1 13.7 + combination drug 4.12 nmol/L (1:0.3)
# [15] = Compound 1 41.2 + combination drug 12.3 nmol/L (1:0.3)
# [16] = Compound 1 123 + combination drug 37.0 nmol/L (1:0.3)
# [17] = Compound 1 370 + combination drug 111 nmol/L (1:0.3)
compound,measurement,setting,value
CN(C)C/C=C/C(=O)Nc1cc2c(Nc3ccc(F)c(Cl)c3)ncnc2cc1O[C@H]1CCOC1 [Afatinib],CI,NCI-H23; [1],0.776
same,Fa,NCI-H23; [1],0.1325
same,CI,NCI-H23; [2],0.397
same,Fa,NCI-H23; [2],0.3961
same,CI,NCI-H23; [3],0.400
same,Fa,NCI-H23; [3],0.8058
same,CI,NCI-H23; [4],0.471
same,Fa,NCI-H23; [4],0.9563
same,Description (combinatory effect by CI),NCI-H23; Compound 1:combination drug molar ratio 1:3,Synergy (0.3-0.7)
same,Fa,MV-4-11; Compound 1 13.7 + combination drug 370 nmol/L (1:27),0.6791
same,Fa,MV-4-11; Compound 1 41.2 + combination drug 1110 nmol/L (1:27),0.9244
same,CI,RT4; [5],0.471
same,Fa,RT4; [5],0.9986
same,Description (combinatory effect by CI),RT4; Compound 1:combination drug molar ratio 1:81,Synergy (0.3-0.7)
same,CI,NCI-H358; [6],0.143
same,Fa,NCI-H358; [6],0.4605
same,CI,NCI-H358; [7],0.264
same,Fa,NCI-H358; [7],0.5395
same,CI,NCI-H358; [8],0.426
same,Fa,NCI-H358; [8],0.6382
same,CI,NCI-H358; [9],0.686
same,Fa,NCI-H358; [9],0.7270
same,CI,NCI-H358; [10],0.526
same,Fa,NCI-H358; [10],0.8696
CCc1nc(C(N)=O)c(Nc2ccc(N3CCC(N4CCN(C)CC4)CC3)c(OC)c2)nc1NC1CCOCC1 [Gilteritinib],CI,NCI-H23; [11],0.540
same,Fa,NCI-H23; [11],0.3005
same,CI,NCI-H23; [12],0.666
same,Fa,NCI-H23; [12],0.6542
same,Description (combinatory effect by CI),NCI-H23; Compound 1:combination drug molar ratio 1:2.7,Synergy (0.3-0.7)
same,CI,MV-4-11; [13],0.817
same,Fa,MV-4-11; [13],0.5753
same,CI,MV-4-11; [14],0.235
same,Fa,MV-4-11; [14],0.8986
same,CI,MV-4-11; [15],0.189
same,Fa,MV-4-11; [15],0.9647
same,CI,MV-4-11; [16],0.354
same,Fa,MV-4-11; [16],0.9763
same,CI,MV-4-11; [17],0.862
same,Fa,MV-4-11; [17],0.9802
C[C@@H](Oc1cc(-c2cnn(C3CCNCC3)c2)cnc1N)c1c(Cl)ccc(F)c1Cl [Crizotinib],CI,NCI-H23; [3],0.939
same,Fa,NCI-H23; [3],0.5445
same,CI,NCI-H23; [4],0.765
same,Fa,NCI-H23; [4],0.8672

# Source: patent US20230146795A1, “ENHANCEMENT OF ANTI-TUMOR ACTIVITY OF SHP2 INHIBITOR PYRIMIDINONE IN COMBINATION WITH NOVEL CANCER MEDICINES IN CANCERS” (TAIHO PHARMACEUTICAL CO., LTD., priority 2020, published 2023)
